This passage reports EC50, IC50 and Activity results from ChEMBL document CHEMBL1141479 (Bioorg Med Chem Lett, 2008).

Calls of active or inactive are those of the source. The rule behind the calls is not given here. Some results are limits rather than exact numbers.

Test [1] has as its target T1, Progesterone receptor (Homo sapiens, UniProt P06401).
T1 sequence (P06401 whole entry): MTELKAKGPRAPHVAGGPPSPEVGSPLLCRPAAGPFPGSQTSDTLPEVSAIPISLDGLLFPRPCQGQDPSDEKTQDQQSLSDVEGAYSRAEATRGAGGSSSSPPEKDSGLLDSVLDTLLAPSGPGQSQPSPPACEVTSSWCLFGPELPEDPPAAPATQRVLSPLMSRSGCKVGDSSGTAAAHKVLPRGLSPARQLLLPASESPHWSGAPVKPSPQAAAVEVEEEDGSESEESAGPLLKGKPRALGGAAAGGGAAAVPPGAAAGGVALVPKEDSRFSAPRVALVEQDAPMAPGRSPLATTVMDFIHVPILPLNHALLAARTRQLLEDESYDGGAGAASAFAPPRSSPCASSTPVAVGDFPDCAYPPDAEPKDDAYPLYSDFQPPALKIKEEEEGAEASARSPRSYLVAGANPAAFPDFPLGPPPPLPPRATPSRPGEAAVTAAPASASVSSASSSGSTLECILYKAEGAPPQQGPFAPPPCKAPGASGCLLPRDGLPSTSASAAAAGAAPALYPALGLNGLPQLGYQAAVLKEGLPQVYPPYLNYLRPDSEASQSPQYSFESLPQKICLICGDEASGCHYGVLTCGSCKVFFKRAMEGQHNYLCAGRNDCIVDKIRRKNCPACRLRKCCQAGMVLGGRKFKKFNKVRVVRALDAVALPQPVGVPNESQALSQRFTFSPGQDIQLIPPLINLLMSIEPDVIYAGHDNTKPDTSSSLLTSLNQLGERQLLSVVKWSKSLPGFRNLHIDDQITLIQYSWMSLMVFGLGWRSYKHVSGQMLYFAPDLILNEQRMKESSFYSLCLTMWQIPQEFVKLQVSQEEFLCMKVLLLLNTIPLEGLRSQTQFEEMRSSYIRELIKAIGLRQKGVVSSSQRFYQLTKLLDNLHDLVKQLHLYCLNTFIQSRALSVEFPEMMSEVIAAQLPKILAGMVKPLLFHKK
The test is described as follows: (§1) Agonist activity at progesterone receptor expressed in CHO cells by luciferase assay. It is filed as functional, cell-based.

Test [2] addresses T1, Progesterone receptor. The test is described as follows: (§2) Inhibition of progesterone receptor expressed in CHO cells by luciferase assay. The format is cell-based.
The target in test [3] is T2, Progesterone receptor (Homo sapiens) (UniProt P06401).
T2 sequence (whole entry): T1 sequence (P06401 whole entry)
The test is described as §1. The format is functional, cell-based.

Test [4] addresses T2, Progesterone receptor (Homo sapiens). Described as §2. It is filed as cell-based.

What is called EC50 is the concentration at which the effect is half-maximal. The term IC50 denotes the concentration that gives 50% inhibition. A low value points to inhibition by little substance. With `O=C(NC1CCCN2c3cc(Cl)ccc3Oc3ccccc3C12)C(F)(F)F` (racemic), the EC50 at Progesterone receptor [1] is 10.6 nM. The same compound registered an IC50 on Progesterone receptor [2] of 43 nM.
As to `O=C(N[C@H]1CCCN2c3cc(Cl)ccc3Sc3ccccc3[C@H]12)C(F)(F)F`, the concentration giving a half-maximal response (EC50) at Progesterone receptor [1] was 2.8 nM.
For the compound `CC(=O)N[C@H]1CCCN2c3cc(Cl)ccc3Oc3ccccc3[C@H]12`, on Progesterone receptor [1], the EC50 stood at 4450 nM. The IC50 against Progesterone receptor [2] came out at 193 nM.
Take `N=C(N[C@H]1CCCN2c3cc(Cl)ccc3Oc3ccccc3[C@H]12)C(F)(F)F`: the EC50 at Progesterone receptor [1] was 10.3 nM. At Progesterone receptor [2], the half-maximal inhibitory concentration (IC50) came out at 133 nM.
Regarding `CN(C(=O)C(F)(F)F)[C@H]1CCCN2c3cc(Cl)ccc3Oc3ccccc3[C@H]12`, the EC50 on Progesterone receptor [1] was 450 nM.
For `O=C(N[C@H]1CCCN2c3cc(Cl)c(Cl)cc3Oc3ccccc3[C@H]12)C(F)(F)F`, the EC50 on Progesterone receptor [1] worked out at 38 nM. The compound further returned an IC50 at Progesterone receptor [2] of 318 nM.
As for `O=C(N[C@H]1CCCN2c3c(Cl)cccc3Oc3ccccc3[C@H]12)C(F)(F)F`, the EC50 on Progesterone receptor [1] came to 19 nM.
The same measure, in the same setting: as for `CC(C)CN[C@H]1CCCN2c3cc(Cl)ccc3Oc3ccccc3[C@H]12`, the figure is 1340 nM.
Same read-out and setting: as for `C=Cc1ccc2c(c1)N1CCC[C@H](NC(=O)C(F)(F)F)[C@H]1c1ccccc1O2`, the figure is more than 1000 nM; as for `O=C(N[C@H]1CCCN2c3cc(Cl)ccc3Oc3ccccc3[C@H]12)OCCl`, 598 nM; as for `O=C(N[C@H]1CCCN2c3ccccc3Oc3ccccc3[C@H]12)C(F)(F)F`, 222 nM.
On to `N[C@H]1CCCN2c3ccccc3Oc3ccccc3[C@H]12`, for which the outcome in test [3] and in test [4] was inactive.
Take `O=C(N[C@H]1CCCN2c3cc(Cl)ccc3Cc3ccccc3[C@H]12)C(F)(F)F`: at Progesterone receptor [1], it took 2 nM to reach a half-maximal effect (EC50). The compound further registered an IC50 on Progesterone receptor [2] of 26 nM.
In the case of `CC(C)CNC(=S)N[C@H]1CCCN2c3cc(Cl)ccc3Oc3ccccc3[C@H]12`, the result in test [3] was inactive. This compound also yielded an IC50 on Progesterone receptor [2] of 314 nM.
On Progesterone receptor [1], `O=C(N[C@H]1CCCN2c3cc(F)ccc3Oc3ccccc3[C@H]12)C(F)(F)F` returned an EC50 of 198 nM. This compound came in with an IC50 against Progesterone receptor [2] of 730 nM.
On Progesterone receptor [1], `O=C(N[C@@H]1CCCN2c3cc(Cl)ccc3Oc3ccccc3[C@@H]12)C(F)(F)F` (racemic) registered an EC50 of 54 nM.
On the same count and under the same terms, with `C=Cc1cccc2c1N1CCC[C@H](NC(=O)C(F)(F)F)[C@H]1c1ccccc1O2` the figure was 0.81 nM.
On the same count and under the same terms, with `O=C(N[C@H]1CCCN2c3c(ccc(Cl)c3Cl)Oc3ccccc3[C@H]12)C(F)(F)F` the figure was 1.6 nM; with `FC(F)(F)C(=S)N[C@H]1CCCN2c3cc(Cl)ccc3Oc3ccccc3[C@H]12`, 1.3 nM; with `CC(=O)c1cccc2c1N1CCC[C@H](NC(=O)C(F)(F)F)[C@H]1c1ccccc1O2`, 0.96 nM.
As to `CCN[C@H]1CCCN2c3ccccc3Oc3ccccc3[C@H]12`, the result in test [3] and in test [4] was inactive.
At Progesterone receptor [1], `CN1c2ccccc2[C@@H]2[C@@H](NC(=O)C(F)(F)F)CCCN2c2cc(Cl)ccc21` had an EC50 of 9.8 nM.
Take `N[C@H]1CCCN2c3cc(Cl)ccc3Oc3ccccc3[C@H]12`: the midpoint of the response at Progesterone receptor [1], the EC50, lay at 513 nM. In test [4], the result was inactive.
On Progesterone receptor [1], `O=C(N[C@H]1CCCN2c3cc(Cl)ccc3Oc3ccccc3[C@H]12)C(F)(F)F` showed an EC50 of 3 nM. Also, the IC50 on Progesterone receptor [2] was 4.3 nM.
The compound `CC(=O)c1ccc2c(c1)N1CCC[C@H](NC(=O)C(F)(F)F)[C@H]1c1ccccc1O2` came in with an EC50 on Progesterone receptor [1] of 258 nM.
Regarding `O=C(N[C@H]1CCCN2c3ccc(Cl)cc3Oc3ccccc3[C@H]12)C(F)(F)F`, the midpoint of the response on Progesterone receptor [1], the EC50, lay at 993 nM. Further, at Progesterone receptor [2], it took 2220 nM to reach half-maximal inhibition (IC50).
